Test results: patent US5426103A, “Certain macrocyclic lactam derivatives” (Ciba-Geigy Corporation, priority 1993, dated 1995)

Tests used:
[1] = target: T1, neutral endopeptidase (NEP) (Rattus norvegicus, UniProt P07861); assay: inhibition of neutral endopeptidase (NEP), substrate not stated with the result; format: biochemical; settings: for relative NEP inhibiting activity of isomers: compared with the other isomer; for IC50: substrate (GAAP or ANF) not stated
T1 sequence (P07861 1-750): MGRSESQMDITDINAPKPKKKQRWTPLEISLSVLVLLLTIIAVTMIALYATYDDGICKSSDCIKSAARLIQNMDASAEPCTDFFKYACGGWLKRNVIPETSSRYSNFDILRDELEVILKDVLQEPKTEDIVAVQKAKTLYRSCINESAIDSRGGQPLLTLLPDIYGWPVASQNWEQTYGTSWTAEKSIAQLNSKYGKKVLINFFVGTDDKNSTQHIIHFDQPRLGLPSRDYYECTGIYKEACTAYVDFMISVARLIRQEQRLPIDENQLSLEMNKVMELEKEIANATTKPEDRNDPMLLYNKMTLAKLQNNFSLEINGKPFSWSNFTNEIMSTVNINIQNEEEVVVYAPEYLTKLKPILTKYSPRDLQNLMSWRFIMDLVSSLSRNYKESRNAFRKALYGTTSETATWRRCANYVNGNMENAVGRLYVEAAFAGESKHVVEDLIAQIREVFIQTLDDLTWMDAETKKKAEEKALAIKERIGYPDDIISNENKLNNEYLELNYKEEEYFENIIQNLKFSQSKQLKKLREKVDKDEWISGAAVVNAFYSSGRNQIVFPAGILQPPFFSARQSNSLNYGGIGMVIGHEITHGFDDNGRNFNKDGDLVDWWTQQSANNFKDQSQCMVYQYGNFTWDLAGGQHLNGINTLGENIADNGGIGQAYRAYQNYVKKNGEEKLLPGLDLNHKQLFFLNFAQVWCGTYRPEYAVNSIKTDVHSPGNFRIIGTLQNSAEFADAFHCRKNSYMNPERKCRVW
Protocol: The in vitro inhibition of neutral endopeptidase (NEP) 3.4.24.11 can be determined as follows:
Neutral endopeptidase 3.4.24.11 activity is determined by the hydrolysis of the substrate glutaryl-Ala-Ala-Phe-2-naphthylamide (GAAP) using a modified procedure of Orlowski and Wilk (1981). The incubation mixture (total volume 125 μl) contains 4.2 μg of protein (rat kidney cortex membranes prepared by method of Maeda et al, 1983), 50 mM tris buffer, pH 7.4 at 25° C., 500 μM substrate (final concentration), and leucine aminopeptidase M (2.5 μg). The mixture is incubated for 10 minutes at 25° C. and 100 μl of fast garnet (250 μg fast garnet/ml of 10% Tween 20 in 1M sodium acetate, pH 4.2) is added. Enzyme activity is measured spectrophotometrically at 540 nm. One unit of NEP 24.11 activity is defined as 1 nmol of 2-naphthylamine released per minute at 25° C. at pH 7.4. IC50 values for inhibition of the enzyme are determined, i.e. the concentration of test compound required for 50% inhibition of the release of 2-naphthylamine.
Neutral endopeptidase activity is also determined using ANF as a substrate. A trial natriuretic factor degrading activity is determined by measuring the disappearance of rat-ANF (r-ANF) using a 3 minute reverse phase-HPLC separation. An aliquot of the enzyme in 50 mM Tris HCl buffer, pH 7.4, is preincubated at 37° C. for 2 minutes and the reaction is initiated by the addition of 4 nmol of r-ANF in a total volume of 50 μl. The reaction is terminated after 4 minutes with the addition of 30 μl of 0.27% trifluoroacetic acid (TFA). Forty microliters of the mixture is injected into a reverse phase-HPLC and analyzed using a C4 cartridge in a 3 minute, isocratic separation. Twenty-three percent of buffer B (0.1% TFA in 80% acetonitrile) is used. Buffer A is 0.1% TFA in water. One unit of activity is defined as the hydrolysis of 1 nmol of r-ANF per minute at 37° C. at pH 7.4. IC50 values for inhibition of the enzyme are determined, i.e. the concentration of test compound required for 50% inhibition of the hydrolysis of ANF.
The test compound is dissolved in dimethyl sulfoxide or 0.25M sodium bicarbonate solution, and the solution is diluted with pH 7.4 buffer to the desired concentration.
In vitro testing is most appropriate for the free mercapto carboxylic acids of the invention.

[2] = target: T2, Neutral endopeptidase 3.4.24.11 (Rattus norvegicus, UniProt P07861); assay: in vitro inhibition of neutral endopeptidase (NEP) 3.4.24.11, GAAP substrate; format: biochemical; settings: pH 7.4, 25° C.
T2 construct: rat kidney cortex membranes prepared by method of Maeda et al, 1983; from tissue; host or cells: rat kidney cortex membranes
T2 sequence (P07861 1-750): T1 sequence (P07861 1-750)

[3] = target: T3, angiotensin-converting enzyme (ACE) (Oryctolagus cuniculus, UniProt P12822); assay: in vitro inhibition of the angiotensin-converting enzyme (ACE), hippuryl-histidyl-leucine substrate; format: biochemical, rabbit; settings: 37° C., 30 minutes
T3 construct: angiotensin-converting enzyme preparation (from lungs of adult male rabbits); from tissue; host or cells: lungs of adult male rabbits
T3 sequence (P12822 34-1310): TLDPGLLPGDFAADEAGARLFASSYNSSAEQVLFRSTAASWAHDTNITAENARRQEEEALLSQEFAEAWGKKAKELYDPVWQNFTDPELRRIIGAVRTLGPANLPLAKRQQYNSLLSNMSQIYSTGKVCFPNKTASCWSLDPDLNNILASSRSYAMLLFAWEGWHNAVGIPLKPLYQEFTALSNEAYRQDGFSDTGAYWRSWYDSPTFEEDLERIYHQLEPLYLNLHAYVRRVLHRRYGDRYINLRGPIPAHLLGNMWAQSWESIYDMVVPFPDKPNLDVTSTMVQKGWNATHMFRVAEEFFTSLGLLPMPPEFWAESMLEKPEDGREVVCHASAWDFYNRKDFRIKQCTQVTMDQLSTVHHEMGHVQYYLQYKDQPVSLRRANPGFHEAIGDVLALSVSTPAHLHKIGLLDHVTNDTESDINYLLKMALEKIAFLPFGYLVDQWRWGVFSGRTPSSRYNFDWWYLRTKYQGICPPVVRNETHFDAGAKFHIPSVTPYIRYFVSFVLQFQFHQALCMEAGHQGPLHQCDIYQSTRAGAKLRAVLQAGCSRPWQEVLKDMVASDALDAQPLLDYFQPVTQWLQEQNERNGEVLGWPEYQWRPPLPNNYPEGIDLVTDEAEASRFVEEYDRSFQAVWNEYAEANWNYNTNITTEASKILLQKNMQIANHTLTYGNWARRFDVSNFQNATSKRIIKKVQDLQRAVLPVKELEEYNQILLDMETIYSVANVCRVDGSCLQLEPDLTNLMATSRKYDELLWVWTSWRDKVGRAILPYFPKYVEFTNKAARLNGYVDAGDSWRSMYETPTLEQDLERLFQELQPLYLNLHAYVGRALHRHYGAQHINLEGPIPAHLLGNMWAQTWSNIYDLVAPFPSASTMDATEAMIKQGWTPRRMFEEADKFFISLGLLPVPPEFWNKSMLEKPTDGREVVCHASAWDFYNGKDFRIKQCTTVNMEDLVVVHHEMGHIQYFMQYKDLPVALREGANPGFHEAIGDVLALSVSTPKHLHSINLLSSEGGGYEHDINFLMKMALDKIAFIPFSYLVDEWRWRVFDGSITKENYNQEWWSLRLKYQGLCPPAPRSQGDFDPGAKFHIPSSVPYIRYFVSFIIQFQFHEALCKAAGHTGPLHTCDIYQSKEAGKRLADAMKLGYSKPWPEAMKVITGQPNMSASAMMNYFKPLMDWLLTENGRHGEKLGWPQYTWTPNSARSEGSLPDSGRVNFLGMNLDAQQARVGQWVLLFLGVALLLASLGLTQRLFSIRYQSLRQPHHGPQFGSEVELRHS
Protocol: Biophys. Acta 293, p. 451 (1973). For example, said compounds are dissolved at about 1 mM concentration in phosphate buffer. To 100 microliters of solutions of the test compound in phosphate buffer, diluted to the desired concentration, are added 100 microliters of 5 mM hippuryl-histidyl-leucine in phosphate buffer, followed by 50 microliters of the angiotensin-converting enzyme preparation (from lungs of adult male rabbits) in Tris buffer, containing potassium and magnesium chloride, as well as sucrose. Said solutions are incubated at 37° C. for 30 minutes and combined with 0.75 ml of 0.6N aqueous sodium hydroxide to stop further reaction. Then 100 microliters of a 0.2% solution of o-phthalaldehyde in methanol are added at room temperature, and 10 minutes later 100 microliters of 6N hydrochloric acid. These samples are read against water in a spectrophotometer set at 360 nm, and the optical densities thereof estimated. They are corrected for the standard curve via a conversion factor expressing nanomoles of histidyl-leucine formed during said 30 minute incubation period. The results are plotted against drug concentration to determine the IC50, i.e., the drug concentration which gives half the activity of the control sample containing no drug.

Row | Structure (SMILES) | relative NEP inhibiting activity of isomers [1] | IC50 [2] [nM] | IC50 [1] [nM] | IC50 [3] [nM]
1 | O=C1N[C@@H](C(=O)O)CCCCCC[C@@H]1CS (relative stereo) [trans 3-mercaptomethyl-2-oxo-1-azacyclodecane-10-carboxylic acid] | more active neutral endopeptidase (NEP) inhibiting diastereoisomer | ~3 |  | 
2 | O=C1N[C@H](C(=O)O)CSCCCCCCCCC1CS (single isomer, unassigned) [Example 35(b)] | more active NEP inhibiting isomer |  |  | 
3 | COC(=O)C1CCCCCCCCCCC(CSC(C)=O)C(=O)N1 (single isomer, unassigned) [Example 24 (minor isomer), methyl 3-(acetylthiomethyl)-2-oxo-1-azacyclotetradecane-14-carboxylate] | more active NEP inhibiting isomer |  |  | 
4 | CC(=O)SC[C@H]1CCCCCC[C@H](C(=O)O)NC1=O (relative stereo) [Example 16, trans 3-(acetylthiomethyl)-2-oxo-1-azacyclodecane-10-carboxylic acid] | more active NEP inhibiting enantiomer |  |  | 

Results, then the compound that gave them:

Row | relative NEP inhibiting activity of isomers [1] | IC50 [2] [nM] | IC50 [1] [nM] | IC50 [3] [nM] | Structure (SMILES)
5 | more active NEP inhibiting isomer |  | 18 | 12 | O=C1N[C@H](C(=O)O)CSCCCCCCCC1CS (single isomer, unassigned)
6 | less active diastereoisomer |  |  |  | O=C1N[C@@H](C(=O)O)CCCCCC[C@H]1CS (relative stereo) [Example 2(b), 3-mercaptomethyl-2-oxo-1-azacyclodecane-10-carboxylic acid]
7 |  |  | ~30 | ~45 | O=C1NC(C(=O)O)CCCCCCCCCCC1CS (stereo not drawn) [3-mercaptomethyl-2oxo-1-azacyclotetradecane-14-carboxylic acid]
8 | more active NEP inhibiting isomer |  |  |  | O=C1NC(C(=O)O)CCCCCCCCCCC1CS (single isomer, unassigned) [Example 25(b), 3-mercaptomethyl-2-oxo-1-azacyclotetradecane-14-carboxylic acid]
